Data set [1] has as its system LNCaP tumour-bearing mice. The experiment in a line: Ex vivo biodistribution in LNCaP tumour-bearing mice. Details: species or system SCID mice. On the procedure:
The eight-week-old male SCID mice (Charles River, Massachusetts, USA) were used to generate the mouse tumour model. The implantation of 10 million LNCaP cells (ATCC, Virginia, USA) per mouse in a 1:1 mixture of Matrigel matrix (Corning, New York, USA) was performed subcutaneously behind the right shoulder of the mouse. Tumours of adequate size, representing a volume of 100–300 mm³, were observed after five to six weeks.
Ex vivo biodistribution of PSMA inhibitors in tumor-bearing mice was conducted as follows. Concisely, 30 µL of acetate buffer was added to the each ⁶⁸Ga -labelled inhibitor, namely: ⁶⁸Ga-P15, ⁶⁸Ga-P16, ⁶⁸Ga-P19, and ⁶⁸Ga-PSMA-617 to achieve physiological pH. Mice were r.o. injected with 100 µL of labelled inhibitor (2 MBq, approximately 0.5 µg of the inhibitor). Animals were divided into two groups for biodistribution studies at 1 and 2 h after administration of the respective ^68Ga-labelled PSMA inhibitor. The animals were sacrificed and autopsied after euthanasia, and organs: spleen, pancreas, stomach, intestine, kidney, liver, heart, lung, muscle, bone, and tumour were collected in scintillation vials. The vials containing the samples were weighed and measured in a Wizard2 gamma counter (PerkinElmer, USA). The measured values were then adjusted for radionuclide decay and expressed as a percentage of administered dose per gram of organ (%ID/g). The NanoScan® hybrid Positron Emission Tomography/Computed Tomography (PET/CT) machine (Mediso, Budapest, Hungary) was used for in vivo imaging specifically whole-body helical PET/CT scans. Imaging settings were: single field of view (FOV) PET scans (98.5 mm) which took 10 min for each mouse and helical CT scans (50 kVp/980 µA, 720 projections) both took place one hour after the administration. Each mouse received an injection of approximately 10 MBq of tested radiopharmaceutical. To prevent the mice’s eyes from drying out during anaesthesia eye ointment (Ophthalmo-Azulen, Zentiva, CR) was applied. Image reconstruction was performed using Mediso Tera-Tomo 3D PET iterative reconstruction (Mediso Medical Imaging Systems, Budapest, Hungary). Both reconstruction and data evaluation were performed in Mediso InterView FUSION software (Mediso Medical Imaging Systems, Budapest, Hungary) (Mediso, Budapest, Hungary). Final images were normalised to injected activity and animal weight. All organs with radiopharmaceutical accumulation were roughly delineated on the images, while their SUVmax value was recorded. The SUV41% (Standardized Uptake Value 41%) was then calculated as 41% of each SUVmax value of given hotspot and the ROI was delineated based on this value (Boellaard et al. [2015]). All images were exported in maximum intensity projection (MIP) mode. The results from the ex vivo biodistribution study were subjected to statistical analysis, namely unpaired Student’s t-test (Microsoft Excel 365, USA).

Data set [2] is described as follows: Octanol/water partition coefficient (log P). The class given is physicochemical. Conditions: octanol/PBS; mean ± SD n = 6. On the procedure:
Octanol/water partition coefficient (P) was determined as described before (Petrik et al. [2012]). Briefly, 600 µL PBS was added to the total volume of the ⁶⁸Ga-P15. New tube was filled with 50 µL of the above-mentioned solution, 500 µL octanol and 450 µL PBS. Five more samples were prepared in this way and then placed on an orbital shaker for 20 min. The samples were then centrifuged at 15,000 rpm for 1 min. After centrifugation, two samples were taken from each tube, one from the octanol and the other from the aqueous phase. The radioactivity of these samples was measured using an automated gamma computer and the formula log P = log(Aoctanol/AH2O) was employed to calculate log P. The same procedure was applied when determining the partition coefficient of ⁶⁸Ga-P16, ⁶⁸Ga-P19, and ⁶⁸Ga-PSMA-617.

The target in the next data set is T1, PSMA (LNCaP cells) (Homo sapiens, UniProt Q04609).
T1 construct: host or cells: LNCaP
T1 sequence (Q04609 whole entry): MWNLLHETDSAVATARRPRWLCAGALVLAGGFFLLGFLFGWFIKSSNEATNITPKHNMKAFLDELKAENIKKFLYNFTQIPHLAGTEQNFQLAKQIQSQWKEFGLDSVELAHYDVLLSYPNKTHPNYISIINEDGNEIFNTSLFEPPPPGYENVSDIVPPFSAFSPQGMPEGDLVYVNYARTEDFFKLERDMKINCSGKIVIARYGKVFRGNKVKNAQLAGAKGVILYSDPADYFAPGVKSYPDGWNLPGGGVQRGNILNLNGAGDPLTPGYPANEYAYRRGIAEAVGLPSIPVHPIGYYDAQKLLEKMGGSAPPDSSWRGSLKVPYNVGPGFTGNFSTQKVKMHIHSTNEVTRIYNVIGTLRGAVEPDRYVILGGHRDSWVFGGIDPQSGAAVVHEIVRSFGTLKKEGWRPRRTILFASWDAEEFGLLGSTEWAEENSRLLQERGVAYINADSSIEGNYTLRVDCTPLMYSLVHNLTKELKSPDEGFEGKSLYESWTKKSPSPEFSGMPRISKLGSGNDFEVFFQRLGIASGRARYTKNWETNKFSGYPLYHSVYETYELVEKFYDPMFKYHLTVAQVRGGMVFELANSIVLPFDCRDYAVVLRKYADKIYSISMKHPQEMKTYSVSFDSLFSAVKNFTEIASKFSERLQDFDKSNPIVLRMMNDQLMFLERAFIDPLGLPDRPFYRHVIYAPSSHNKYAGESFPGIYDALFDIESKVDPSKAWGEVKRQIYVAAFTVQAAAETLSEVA
Put plainly: Competition assay on LNCaP cells against [68Ga]Ga-PSMA-617. Conditions: for IC50: competition with 5 nM [68Ga]Ga-PSMA-617, 60 min, 37 °C. The class given is binding. On the procedure:
The competition assay, LNCaP cells were seeded into poly-L-lysine coated 24-well plates in amount of 0.5 × 10^6 cells/well 24 h prior to the competition assay. The tested ligands (^68Ga-P15, ^68Ga-P16 and ^68Ga-P19) were added to the wells in concentrations 0, 1, 5, 10, 25, 50, 100, 500, 1000 and 5000 nM in triplicates. Afterwards, ^68Ga-labelled PSMA-617 was added to each well so its final concentration was 5 nM. All the ligands in this assay were dissolved in the buffer containing 25 mM Tris-HCl, 5.4 mM KCl, 1.8 mM CaCl2, 0.8 mM MgSO4, 5 mM glucose, and 140 mM NaCl in H2O (pH adjusted to 7.4). ^68Ga-PSMA-617 was incubated on cells for 60 min at 37 °C followed by its removal and washing the cells with PBS. Finally, the cells were disintegrated using 0.1 M NaOH and transferred into the scintillation vials for the gamma counting. The IC50 values were calculated by fitting the data using a nonlinear regression algorithm (GraphPad PRISM 7.0) and the data were assessed by t-test.

The nature of data set [3]: Radiochemical stability in physiological pH water environment. In kind it is physicochemical. Conditions: radiochemical purity, pH 7, 37 °C, n = 1. On the procedure: Quality control, i.e. radiochemical purity, of the ^68Ga-labelled PSMA inhibitors was evaluated by analytical high performance liquid chromatography (HPLC; Dionex UltiMate 3000, Thermo Scientific, Waltham, Massachusetts, USA) using the following equipment: ACE 3 C18 column; 150 × 3 mm, 3 μm (Advanced Chromatography Technologies Ltd, Aberdeen, UK), with gradient elution A: H2O/acetonitrile (ACN); B:0.1% trifluoroacetic acid (TFA)/H2O: 0–3 min, 0% ACN; 3–10 min, 0 − 50% ACN; 10–13 min, 50 − 80% ACN; 13–15 min, 80–0% ACN, for 15 min at a flow rate of 1 mL/min. Radiometric detection was performed using a GABI Star radiodetector (Raytest GmbH, Straubenhardt, Germany) and for chromatogram quantification Chromatography Data System (CDS) - Chromeleon software (Thermo Scientific, USA) was used. The actual sample injection was performed using a Hamilton microinjector (Hamilton, USA).
Radiochemical stability in a physiological pH water environment was determined as follows: 100 µL of acetate buffer (1.1 mol/L) was added to the labelled preparation and the pH was then checked with a pH indicator paper to be 7. The mixture was further incubated at 37 °C and after 30, 60 and 120 min, 10 µL aliquot was used for HPLC analysis of radiochemical purity.

Data set [4] in a line: Stability in human plasma/serum (radiochemical purity by HPLC). In kind it is in vitro ADME. Conditions: 37 °C, incubation time 0 min, n = 1.
Setting [5] is: one-hour p.i., mean ± SD, n = 4.

SMILES strings stand for the structures.

Broadly, the IC50 is the concentration at which inhibition is half-maximal. For `O=C([O-])CN1CCN(CC(=O)[O-])CCN(CC(=O)N[C@H]2CC[C@H](NC(=O)[C@@H](Cc3ccc4ccccc4c3)NC(=O)CC[C@H](NC(=O)N[C@@H](CCC(=O)O)C(=O)O)C(=O)O)CC2)CCN(CC(=O)[O-])CC1.[68Ga+3]` [[^68Ga]Ga-P15], the “tumour-to-muscle ratio, fold lower than [68Ga]Ga-PSMA-617” value in data set [1] (Fig. 5) is “more than 7 fold”. In addition, the results for the “tumour uptake, fold lower than [68Ga]Ga-P16” value in data set [1] (one-hour p.i.) and in data set [1] (two-hours p.i.) were “more than 5 fold” and “up to 10 fold”, respectively. Also, the “tumour-to-muscle ratio of [68Ga]Ga-PSMA-617 relative to that of the inhibitor” value in data set [1] (one-hour p.i.) was roughly 7.5 times. Further, the “Accumulation in the tumour” value in data set [1] (two-hours p.i., n = 4) stood at 0.5%. For the same compound, the “Log P” value in data set [2] is given as “–3,71 ± 0,14”. The “IC50 fold higher than that of [68Ga]Ga-P16” value at PSMA (LNCaP cells) (competition assay) was roughly 25 fold. Moreover, the IC50 on PSMA (LNCaP cells) was found to be 97.3 nM. Besides, the “Stability in Physiological pH (%)” value in data set [3] (incubation time 0 min) stood at 99.0%; in data set [3] (incubation time 30 min), 98.8%; in data set [3] (incubation time 60 min) it was 98.7%; in data set [3] (incubation time 120 min) it was 99.2%. Besides, the “Stability in human serum (%)” value in data set [4] stood at 99.0%.

Consider `O=C([O-])CN1CCN(CC(=O)[O-])CCN(CC(=O)N[C@H]2CC[C@H](NC(=O)[C@H](Cc3ccc4ccccc4c3)NC(=O)CC[C@H](NC(=O)N[C@@H](CCC(=O)O)C(=O)O)C(=O)O)CC2)CCN(CC(=O)[O-])CC1.[68Ga+3]` [[^68Ga]Ga-P16], for which the “tumour-to-muscle ratio of [68Ga]Ga-PSMA-617 relative to that of the inhibitor” value in data set [1] (one-hour p.i.) is given as “more than twice”. In addition, the “Accumulation in the spleen” value in data set [1] (one-hour p.i., n = 4) is 7.7 % ID/g; in data set [1] (two-hours p.i., n = 4), 9.6 % ID/g. For the same compound, the “Log P” value in data set [2] was “–3,07 ± 0,87”. For the same compound, the IC50 at PSMA (LNCaP cells) amounted to 4 nM. For the same compound, the “Stability in Physiological pH (%)” value in data set [3] (incubation time 0 min) is given as 99.3%; in data set [3] (incubation time 30 min), 99.1%; in data set [3] (incubation time 60 min), 99.3%; in data set [3] (incubation time 120 min), 99.3%. The “Stability in human serum (%)” value in data set [4] came out at 99.0%.

With `O=C([O-])CN1CCN(CC(=O)[O-])CCN(CC(=O)NCc2ccc(C(=O)N[C@H](C(=O)NCCCC[C@H](NC(=O)N[C@@H](CCC(=O)O)C(=O)O)C(=O)O)C(c3ccccc3)c3ccccc3)cc2)CCN(CC(=O)[O-])CC1.[68Ga+3]` [[^68Ga]Ga-P19], the “tumour-to-blood ratio, times higher than [68Ga]Ga-PSMA-617” value in data set [1] (one hour after administration) was “more than 1.5 times”. The “level in the kidney, times lower compared to [68Ga]Ga-PSMA-617” value in data set [1] (one hour after administration, p < 0.05) is recorded as “up to 7 times”. For the same compound, the “tumour-to-muscle ratio of [68Ga]Ga-PSMA-617 relative to that of the inhibitor” value in data set [1] (one-hour p.i.) is “more than 1.6 times”. The tumour-to-blood ratio in data set [1] (setting [5]) is 9.0 ± 2.3. Also, the tumour-to-kidney ratio came to 0.85 ± 0.36 in data set [1] (setting [5]) and 0.85 ± 0.02 in data set [1] (two hours post injection, mean ± SD, n = 4). The “Accumulation in the tumour” value in data set [1] (one-hour p.i., n = 4) came out at 3.5 % ID/g; in data set [1] (two-hours p.i., n = 4) it was 2.0 % ID/g. The “Log P” value in data set [2] was “–3,41 ± 0,13”. On PSMA (LNCaP cells), this compound yielded an IC50 of 95.6 nM. In addition, the “Stability in Physiological pH (%)” value was found to be 99.8% in data set [3] (incubation time 0 min), 99.5% in data set [3] (incubation time 30 min), 99.5% in data set [3] (incubation time 60 min) and 99.6% in data set [3] (incubation time 120 min). Besides, the “Stability in human serum (%)” value in data set [4] was 99.0%.

Values taken from PMC12474757, “Paving the way for future PSMA inhibitors: insights from comparative preclinical evaluations of structure modifications” (EJNMMI Radiopharmacy and Chemistry, 2025).
